Where two headings read alike, the source gives them in different places.

For series [1], the target named is T1, murine ATGL (Mus musculus, UniProt Q8BJ56).
T1 construct: made in house; host or cells: Expi cells (lysate)
T1 sequence (Q8BJ56 1-486): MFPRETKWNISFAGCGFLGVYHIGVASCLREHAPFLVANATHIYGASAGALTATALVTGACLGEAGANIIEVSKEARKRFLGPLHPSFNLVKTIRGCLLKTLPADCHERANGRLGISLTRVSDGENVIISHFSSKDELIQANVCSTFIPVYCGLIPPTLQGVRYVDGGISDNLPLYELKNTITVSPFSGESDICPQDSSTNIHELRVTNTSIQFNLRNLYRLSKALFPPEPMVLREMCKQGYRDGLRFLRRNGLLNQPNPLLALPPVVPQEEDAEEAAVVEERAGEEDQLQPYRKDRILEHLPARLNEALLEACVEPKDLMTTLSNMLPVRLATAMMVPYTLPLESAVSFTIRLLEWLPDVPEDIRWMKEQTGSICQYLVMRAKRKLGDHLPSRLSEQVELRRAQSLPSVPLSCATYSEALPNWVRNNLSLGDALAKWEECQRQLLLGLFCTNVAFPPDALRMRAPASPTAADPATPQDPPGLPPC
The experiment in a line: TG hydrolase activity, Expi lysates expressing mouse ATGL + CGI-58, radiolabelled triolein. It is filed as biochemical. An outline of the steps:
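Lysates of Expi cells overexpressing mouse ATGL, with added recombinant CGI-58, were incubated with inhibitor at 50 μM. Substrate was emulsified radiolabelled triolein with PC/PI in 100 mM potassium phosphate pH 7.0 and 5% FA-free BSA, 1 h at 37° C. Released FA were extracted and counted by scintillation; triplicates, DMSO control.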

The nature of series [2]: Stability in human serum. Particulars: 37° C., HPLC MS. It is filed as in vitro ADME. As to the method:
Inhibitors were incubated in human serum for 0 or 3 h at 37° C. and subsequently extracted with the MTBE method and analyzed via HPLC MS. Samples measured in triplicates.

Series [3] addresses T2, hHSL (Homo sapiens, UniProt Q05469).
T2 construct: made in house; host or cells: Expi cells (lysate)
T2 sequence (Q05469 1-1076): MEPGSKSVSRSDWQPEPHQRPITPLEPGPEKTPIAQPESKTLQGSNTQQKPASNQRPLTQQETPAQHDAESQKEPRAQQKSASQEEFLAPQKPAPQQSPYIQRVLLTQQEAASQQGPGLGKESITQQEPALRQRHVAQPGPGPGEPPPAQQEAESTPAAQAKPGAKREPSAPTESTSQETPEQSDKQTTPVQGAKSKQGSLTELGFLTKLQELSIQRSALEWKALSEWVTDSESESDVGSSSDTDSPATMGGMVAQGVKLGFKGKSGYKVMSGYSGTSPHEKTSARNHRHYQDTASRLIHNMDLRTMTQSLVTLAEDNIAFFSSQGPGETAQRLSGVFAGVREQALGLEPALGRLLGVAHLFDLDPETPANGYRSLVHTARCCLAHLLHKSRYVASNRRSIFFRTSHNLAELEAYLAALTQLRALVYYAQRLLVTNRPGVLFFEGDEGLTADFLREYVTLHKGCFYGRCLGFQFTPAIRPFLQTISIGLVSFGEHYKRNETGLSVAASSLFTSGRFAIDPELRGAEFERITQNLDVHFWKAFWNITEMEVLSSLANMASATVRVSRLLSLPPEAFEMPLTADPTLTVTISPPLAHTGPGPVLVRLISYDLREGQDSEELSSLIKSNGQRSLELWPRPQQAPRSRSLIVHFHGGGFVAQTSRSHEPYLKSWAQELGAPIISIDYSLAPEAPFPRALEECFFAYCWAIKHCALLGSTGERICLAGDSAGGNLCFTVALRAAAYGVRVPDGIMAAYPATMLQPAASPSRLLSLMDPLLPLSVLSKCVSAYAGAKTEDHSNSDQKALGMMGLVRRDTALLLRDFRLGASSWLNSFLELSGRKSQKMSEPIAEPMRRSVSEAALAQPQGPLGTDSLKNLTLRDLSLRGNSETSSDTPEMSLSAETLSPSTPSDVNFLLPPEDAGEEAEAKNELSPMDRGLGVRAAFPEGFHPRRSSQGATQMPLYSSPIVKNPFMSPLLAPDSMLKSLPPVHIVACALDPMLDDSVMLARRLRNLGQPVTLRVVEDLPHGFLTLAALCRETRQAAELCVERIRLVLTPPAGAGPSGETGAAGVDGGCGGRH
The experiment in a line: hHSL off-target inhibition. It is filed as biochemical. Conditions: read-out: hHSL off-target inhibition [% inhibition at 100 μM]. As for the experimental part:
Expi lysates expressing hHSL were preincubated with 100 μM Inhibitors for 30 min and incubated with 1 mM pNV substrate for 30 min. Samples measured in triplicates.

Setting [4] is: 50 μM compound, Example 237, read-out: Inhibition of murine ATGL at 50 μM − mean [%].
[5] abbreviates: 50 μM, Example 238, read-out: % Inhibition of murine ATGL at 50 μM.
The mark [6] stands for this setting: 50 μM, overview table, read-out: mouse ATGL inhibition [% inhibition at 50 μM].

A word on the inhibition: it is how much of the control response was suppressed. Take `CCOc1ccc(-c2cc(OC)cc(C(=O)OC(C)C)n2)cc1` [Example 35]: the inhibition at 50 µM in series [1] (setting [4]) was 0%. Also, in series [2], the “Stability in human serum [% rest after 3 h incubation]” value turned out to be 75%. Besides, the inhibition at 100 µM in series [3] came to 0%.
`CCOc1ccc(-c2nc(C(=O)OCc3cccs3)cs2)cc1` [Example 152, Thiophen-2-ylmethyl 2-(4-ethoxyphenyl)thiazole-4-carboxylate]: in series [1] (setting [4]), the inhibition at 50 µM is 74%. Moreover, in series [2], the “Stability in human serum [% rest after 3 h incubation]” value was determined as 80%. Also, the inhibition at 100 µM in series [3] was 25%.
`CCOc1ccc(-c2cccc(C(=O)OCc3cccs3)n2)cc1` [Example 189, Thiophen-2-ylmethyl 6-(4-ethoxyphenyl)picolinate]: the inhibition at 50 µM in series [1] (setting [5]) amounted to 87%. Besides, in series [2], the “Stability in human serum [% rest after 3 h incubation]” value came out at 25%. Further, in series [3], the inhibition at 100 µM was determined as 0%.
Consider `CCOc1ccc(-c2cccc(C(=O)OCc3ccco3)n2)cc1` [Example 190, Furan-2-ylmethyl 6-(4-ethoxyphenyl)picolinate], for which, in series [1] (setting [5]), the inhibition at 50 µM is 80%. Moreover, the “Stability in human serum [% rest after 3 h incubation]” value in series [2] was 0%. Also, the inhibition at 100 µM in series [3] came to 0%.
For the molecule `COc1cc(C(=O)OC(C)C)nc(-c2ccc(OC(C)C)cc2)c1` [Example 201, Isopropyl 6-(4-isopropoxyphenyl)-4-methoxypicolinate], the inhibition at 50 µM in series [1] (setting [5]) was 45%; in series [1] (setting [6]), 0%. The “Stability in human serum [% rest after 3 h incubation]” value in series [2] was determined as 100%. Moreover, the inhibition at 100 µM in series [3] was 0%.
Take `CC#CCOC(=O)c1csc(-c2ccc(OCC)cc2)n1` [Example 209, But-2-yn-1-yl 2-(4-ethoxyphenyl)thiazole-4-carboxylate]: the inhibition at 50 µM in series [1] (setting [5]) stood at 76%. Also, the “Stability in human serum [% rest after 3 h incubation]” value in series [2] turned out to be 75%. In addition, the inhibition at 100 µM in series [3] is 40%.
`C#C[C@H](C)OC(=O)c1csc(-c2ccc(OCC)cc2)n1` [Example 210, (S)-But-3-yn-2-yl 2-(4-ethoxyphenyl)thiazole-4-carboxylate]: in series [1] (Example 238), the inhibition at 25 µM turned out to be 47%. In series [1] (setting [5]), the inhibition at 50 µM amounted to 60%. The “Stability in human serum [% rest after 3 h incubation]” value in series [2] is 100%. Besides, the inhibition at 100 µM in series [3] came out at 0%.
On to `C#C[C@@H](C)OC(=O)c1csc(-c2ccc(OCC)cc2)n1` [Example 211, (R)-But-3-yn-2-yl 2-(4-ethoxyphenyl)thiazole-4-carboxylate], for which the inhibition at 25 µM in series [1] (Example 238) was determined as 73%. In addition, the figures for the inhibition at 50 µM in series [1] (setting [5]) and in series [1] (setting [6]) were 82% and 60%, respectively. For the same molecule, in series [2], the “Stability in human serum [% rest after 3 h incubation]” value worked out at 90%. Moreover, in series [3], the inhibition at 100 µM amounted to 40%.
As to `CCCCOC(=O)c1csc(-c2ccc(OCC)cc2)n1` [Example 212, Butyl 2-(4-ethoxyphenyl)thiazole-4-carboxylate], in series [1] (Example 238), the inhibition at 25 µM came out at 47%. In series [1] (setting [5]), the inhibition at 50 µM was 56%. Further, in series [2], the “Stability in human serum [% rest after 3 h incubation]” value was found to be 50%. Also, the inhibition at 100 µM in series [3] worked out at 0%.
With `CCOc1ccc(-c2nc(C(=O)OCc3ccsc3)cs2)cc1` [Example 215, Thiophen-3-ylmethyl 2-(4-ethoxyphenyl)thiazole-4-carboxylate], in series [1] (Example 238), the inhibition at 25 µM was 71%. The inhibition at 50 µM in series [1] (setting [5]) came to 81%; in series [1] (setting [6]), 60%. Further, the “Stability in human serum [% rest after 3 h incubation]” value in series [2] came to 80%. For the same molecule, in series [3], the inhibition at 100 µM came to 30%.
Regarding `CCOc1ccc(-c2nc(C(=O)OCc3ccoc3)cs2)cc1` [Example 216, Furan-3-ylmethyl 2-(4-ethoxyphenyl)thiazole-4-carboxylate], the inhibition at 25 µM in series [1] (Example 238) worked out at 70%. Besides, in series [1] (setting [5]), the inhibition at 50 µM was 81%. Besides, the “Stability in human serum [% rest after 3 h incubation]” value in series [2] is recorded as 60%. Besides, the inhibition at 100 µM in series [3] was 30%.
Turning to `CCOc1ccc(-c2nc(C(=O)OCc3ccc(Cl)s3)cs2)cc1` [Example 223, (5-Chlorothiophen-2-yl)methyl 2-(4-ethoxyphenyl)thiazole-4-carboxylate], the inhibition at 50 µM in series [1] (setting [5]) stood at 71%. In addition, the “Stability in human serum [% rest after 3 h incubation]” value in series [2] is given as 80%. The inhibition at 100 µM in series [3] stood at 40%.
Consider `CCOc1ccc(-c2nc(C(=O)OCc3ccc(Br)s3)cs2)cc1` [Example 224, (5-Bromothiophen-2-yl)methyl 2-(4-ethoxyphenyl)thiazole-4-carboxylate], for which the inhibition at 50 µM in series [1] (setting [5]) amounted to 68%. The inhibition at 100 µM in series [3] is 95%.

(Values after patent US20220289698A1, “INHIBITORS OF HUMAN ATGL” (Karl-Franzens-Universität Graz, priority 2019, published 2022).)
